Blank lines part the entries; values can stand above or below the compound they belong to.
Columns and labels:
[1] = target: T1, CYP1A2 (Homo sapiens, UniProt P05177); assay: Inhibition of human liver microsomal CYP1A2 (phenacetin probe); format: in vitro ADME; details: human liver microsomes, read-out: Half inhibitory concentration IC50, CYP1A2
T1 construct: from tissue; host or cells: human liver microsomes
T1 sequence (P05177 1-516): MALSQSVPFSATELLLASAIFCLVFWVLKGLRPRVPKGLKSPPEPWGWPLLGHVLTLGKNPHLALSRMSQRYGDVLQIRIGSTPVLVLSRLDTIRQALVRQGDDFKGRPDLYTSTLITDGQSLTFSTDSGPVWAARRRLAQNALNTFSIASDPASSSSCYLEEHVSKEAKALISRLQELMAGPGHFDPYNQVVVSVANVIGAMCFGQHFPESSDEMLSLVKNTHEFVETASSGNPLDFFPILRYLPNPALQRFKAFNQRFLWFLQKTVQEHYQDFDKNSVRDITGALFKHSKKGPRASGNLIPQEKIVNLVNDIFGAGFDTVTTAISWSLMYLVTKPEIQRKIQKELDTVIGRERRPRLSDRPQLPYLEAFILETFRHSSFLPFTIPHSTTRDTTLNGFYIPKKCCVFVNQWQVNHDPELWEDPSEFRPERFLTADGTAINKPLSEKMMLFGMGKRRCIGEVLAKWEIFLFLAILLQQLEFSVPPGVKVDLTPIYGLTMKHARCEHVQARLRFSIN
Procedure: (§1) Experimental Example 2. Inhibition of human liver microsomal cytochrome P450 isoenzymes (CYP1A2, CYP2C9, CYP2C19, CYP2D6 and CYP3A4) activity
(§2) A total of 5 specific probe substrates of 5 CYP isozymes, which are phenacetin (PHenacetin, CYP1A2), diclofenac (Diclofenac, CYP2C9), (S)-mephenytoin ((S)-MepHenytoin, CYP2C19), dextromethorpHan (CYP2D6), and midazolam (Midazolam, CYP3A4), were incubated with human liver microsomes respectively. Then, reduced nicotinamide adenine dinucleotide phosphate (NADPH) was added to initiate reaction. After the reaction, the sample is processed and quantitatively detected for the concentrations of the five metabolites produced from the specific substrate, acetaminophen (AcetaminopHen), 4′-hydroxydiclofenac (4′-Hydroxydiclofenac), 4′-Hydroxymephenytoin (4′-HydroxymepHenytoin), Dextrorphan (DextrorpHan), and 1′-Hydroxymidazolam (1′-Hydroxymidazolam) by liquid chromatography-quadrupole mass spectrometry (LC-MS/MS) method to calculate the corresponding half inhibitory concentration (IC50).

[2] = target: T2, CYP2C9 (Homo sapiens, UniProt P11712); assay: Inhibition of human liver microsomal CYP2C9 (diclofenac probe); format: in vitro ADME; details: human liver microsomes, read-out: Half inhibitory concentration IC50, CYP2C9
T2 construct: from tissue; host or cells: human liver microsomes
T2 sequence (P11712 whole entry): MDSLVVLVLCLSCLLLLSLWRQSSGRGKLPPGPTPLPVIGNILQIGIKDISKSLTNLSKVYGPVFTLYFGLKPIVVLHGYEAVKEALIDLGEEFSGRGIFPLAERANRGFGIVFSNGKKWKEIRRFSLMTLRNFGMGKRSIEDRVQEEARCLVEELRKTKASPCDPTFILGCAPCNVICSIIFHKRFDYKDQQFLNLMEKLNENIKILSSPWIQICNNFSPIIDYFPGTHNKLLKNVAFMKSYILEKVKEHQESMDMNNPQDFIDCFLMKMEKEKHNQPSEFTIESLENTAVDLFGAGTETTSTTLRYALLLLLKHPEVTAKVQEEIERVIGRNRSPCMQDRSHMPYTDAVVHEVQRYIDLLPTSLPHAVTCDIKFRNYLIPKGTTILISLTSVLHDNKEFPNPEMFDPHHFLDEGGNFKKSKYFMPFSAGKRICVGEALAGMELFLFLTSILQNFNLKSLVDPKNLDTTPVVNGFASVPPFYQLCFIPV
Procedure: as §1, §2

[3] = target: T3, CYP2C19 (Homo sapiens, UniProt P33261); assay: Inhibition of human liver microsomal CYP2C19 ((S)-mephenytoin probe); format: in vitro ADME; details: human liver microsomes, read-out: Half inhibitory concentration IC50, CYP2C19
T3 construct: from tissue; host or cells: human liver microsomes
T3 sequence (P33261 whole entry): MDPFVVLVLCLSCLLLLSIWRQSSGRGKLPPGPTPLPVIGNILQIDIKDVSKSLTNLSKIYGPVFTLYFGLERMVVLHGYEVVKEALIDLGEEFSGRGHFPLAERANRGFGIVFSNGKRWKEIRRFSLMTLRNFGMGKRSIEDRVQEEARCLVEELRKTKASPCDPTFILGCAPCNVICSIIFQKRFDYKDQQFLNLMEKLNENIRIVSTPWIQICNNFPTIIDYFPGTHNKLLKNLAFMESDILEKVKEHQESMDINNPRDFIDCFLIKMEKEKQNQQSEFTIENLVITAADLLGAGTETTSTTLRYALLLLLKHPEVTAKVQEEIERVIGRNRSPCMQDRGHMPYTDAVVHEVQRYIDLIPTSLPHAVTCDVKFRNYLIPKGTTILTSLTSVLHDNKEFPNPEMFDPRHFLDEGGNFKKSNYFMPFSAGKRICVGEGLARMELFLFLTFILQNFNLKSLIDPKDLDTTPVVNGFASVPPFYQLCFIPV
Procedure: as §1, §2

[4] = target: T4, CYP2D6 (Homo sapiens, UniProt P10635); assay: Inhibition of human liver microsomal CYP2D6 (dextromethorphan probe); format: in vitro ADME; details: human liver microsomes, read-out: Half inhibitory concentration IC50, CYP2D6
T4 construct: from tissue; host or cells: human liver microsomes
T4 sequence (P10635 whole entry): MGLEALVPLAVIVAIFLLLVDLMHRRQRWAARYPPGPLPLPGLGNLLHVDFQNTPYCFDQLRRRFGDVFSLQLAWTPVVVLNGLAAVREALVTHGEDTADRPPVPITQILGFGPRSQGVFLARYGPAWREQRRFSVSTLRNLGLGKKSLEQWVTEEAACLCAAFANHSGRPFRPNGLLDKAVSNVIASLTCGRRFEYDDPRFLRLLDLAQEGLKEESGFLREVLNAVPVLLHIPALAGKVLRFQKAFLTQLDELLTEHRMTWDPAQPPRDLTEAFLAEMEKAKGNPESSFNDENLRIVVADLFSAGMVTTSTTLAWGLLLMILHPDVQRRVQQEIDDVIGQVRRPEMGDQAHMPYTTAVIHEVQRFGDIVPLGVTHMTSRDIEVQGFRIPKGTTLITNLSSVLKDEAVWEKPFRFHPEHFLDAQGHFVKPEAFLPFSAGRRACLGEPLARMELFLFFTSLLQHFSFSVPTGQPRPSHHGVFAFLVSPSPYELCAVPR
Procedure: as §1, §2

[5] = target: T5, CYP3A4 (Homo sapiens, UniProt P08684); assay: Inhibition of human liver microsomal CYP3A4 (midazolam probe); format: in vitro ADME; details: for inhibitory effect on CYP3A4 (in words): conclusion from Table 2; for IC50: human liver microsomes, midazolam, read-out: Half inhibitory concentration IC50, CYP3A4-M
T5 construct: from tissue; host or cells: human liver microsomes
T5 sequence (P08684 whole entry): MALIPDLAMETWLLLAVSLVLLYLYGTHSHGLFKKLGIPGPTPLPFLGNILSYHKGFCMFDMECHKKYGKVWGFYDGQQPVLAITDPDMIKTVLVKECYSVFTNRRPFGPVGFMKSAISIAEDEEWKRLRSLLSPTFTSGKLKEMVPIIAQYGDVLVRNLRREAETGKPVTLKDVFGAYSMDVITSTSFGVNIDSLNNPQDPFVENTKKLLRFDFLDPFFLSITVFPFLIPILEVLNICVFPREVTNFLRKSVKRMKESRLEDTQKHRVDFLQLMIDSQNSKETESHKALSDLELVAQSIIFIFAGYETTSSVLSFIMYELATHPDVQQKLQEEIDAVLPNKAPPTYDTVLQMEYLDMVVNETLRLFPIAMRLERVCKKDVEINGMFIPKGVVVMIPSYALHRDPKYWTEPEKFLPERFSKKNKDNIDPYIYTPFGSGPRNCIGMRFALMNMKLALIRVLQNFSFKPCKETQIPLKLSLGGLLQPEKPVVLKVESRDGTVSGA
Procedure: Inhibition of human liver microsomal cytochrome P450 isoenzymes (CYP1A2, CYP2C9, CYP2C19, CYP2D6 and CYP3A4) activity
A total of 5 specific probe substrates of 5 CYP isozymes, which are phenacetin (PHenacetin, CYP1A2), diclofenac (Diclofenac, CYP2C9), (S)-mephenytoin ((S)-MepHenytoin, CYP2C19), dextromethorpHan (CYP2D6), and midazolam (Midazolam, CYP3A4), were incubated with human liver microsomes respectively. Then, reduced nicotinamide adenine dinucleotide phosphate (NADPH) was added to initiate reaction.

[6] = target: T6, CCR2 (Homo sapiens, UniProt P41597); assay: FLIPR calcium assay, CCR2 cell line; format: cell-based; details: HEK293 host cell, MCP-1 agonist, intracellular calcium signal; read-out: IC50 (nM) test results for FLIPR detection, CCR2
T6 construct: expressed in transfected cells; host or cells: HEK293 (clone C7, passage P6)
T6 sequence (P41597 whole entry, species assumed): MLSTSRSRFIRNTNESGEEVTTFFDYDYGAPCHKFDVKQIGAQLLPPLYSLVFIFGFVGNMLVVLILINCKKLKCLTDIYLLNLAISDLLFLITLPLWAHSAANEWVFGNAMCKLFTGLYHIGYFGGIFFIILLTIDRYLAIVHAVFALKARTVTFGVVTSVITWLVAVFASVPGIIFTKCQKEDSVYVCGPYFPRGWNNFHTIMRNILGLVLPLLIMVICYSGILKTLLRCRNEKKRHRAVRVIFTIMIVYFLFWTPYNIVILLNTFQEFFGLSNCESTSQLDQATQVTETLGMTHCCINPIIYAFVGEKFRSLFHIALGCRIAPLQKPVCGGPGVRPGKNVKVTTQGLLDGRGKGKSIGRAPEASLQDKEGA
Procedure: (§3) The changes in intracellular calcium signal were detected by FLIPR Calcium assay, and the compound's IC50 value was used as an indicator to evaluate inhibitory effect of the compound on CCR2 and CCR5 receptors.
(§4) 1, Cell line: Cells were seeded and incubated overnight in an incubator at 37° C. and 5% CO2.
(§5) CCR2/CCR5 density: 1 M (20K/Well)
(§6) 2, Reagents: Fluo-4 Direct, (Invitrogen, Cat #f10471)
(§7) The compound was dissolved in DMSO to prepare a 10 mM solution, and the compound solution was placed in a nitrogen gas box.
(§8) MCP-1 was serially diluted with FLIPR assay buffer starting from 0.5 μM at a dilution ratio of 1:2 and a total of 10 gradients were diluted (final 100 nM). RANTES is serially diluted with FLIPR assay buffer starting from 0.5 μM at a dilution ratio of 1:3 and a total of 10 gradients were diluted (final 100 nM). According to the compound plate-map, 20 μL of the serially diluted compound buffers were added to each well of the DRC plate respectively.
(§9) The standard compound was diluted with DMSO 1:3 starting from 1 mM at a dilution ratio of 1:3 and a total of 11 gradients were diluted. The test compound was diluted with DMSO 1:3 starting from 2 mM at a dilution ratio of 1:3 and a total of 11 gradients were diluted.
(§10) c) taking the cell plate from the incubator, and gently distributing 20 μL of 2× Fluo-4 Direct non-washing loading buffer to each well of the 384-well cell culture plate using a pipette, wherein each of wells in the cell plate has a final volume of 40 μL.
(§11) d) Incubating at 37° C. and 5% CO2 for 50 minutes, and at room temperature for 10 minutes.
(§12) e) removing the cell plate from the incubator and placing in FLIPR, and putting the composite plate and the tip box into FLIPR.
(§13) 5) Calculating from Read 90 to the maximum allowable “maximum-minimum”, and calculating the EC80 value of each of cell lines by using FLIPR
(§14) 6) Preparing the reference agonist compound at a concentration of 5×EC80
(§15) 2) Transferring […] of the reference agonist compound at a concentration of 5×EC80 from the composite plate to the cell plate.
(§16) 3) Reading the fluorescence signal.
(§17) 4) Calculating from Read 90 to the maximum allowable “maximum-minimum”.
(§18) h) Analyzing the data and calculating the IC50 value of the compound by using Prism.

[7] = target: T7, CCR5 (Homo sapiens, UniProt P51681); assay: FLIPR calcium assay, CCR5 cell line; format: cell-based; details: HEK293 host cell, RANTES agonist, intracellular calcium signal; read-out: IC50 (nM) test results for FLIPR detection, CCR5
T7 construct: expressed in transfected cells; host or cells: HEK293 (clone C13, passage P4)
T7 sequence (P51681 whole entry, species assumed): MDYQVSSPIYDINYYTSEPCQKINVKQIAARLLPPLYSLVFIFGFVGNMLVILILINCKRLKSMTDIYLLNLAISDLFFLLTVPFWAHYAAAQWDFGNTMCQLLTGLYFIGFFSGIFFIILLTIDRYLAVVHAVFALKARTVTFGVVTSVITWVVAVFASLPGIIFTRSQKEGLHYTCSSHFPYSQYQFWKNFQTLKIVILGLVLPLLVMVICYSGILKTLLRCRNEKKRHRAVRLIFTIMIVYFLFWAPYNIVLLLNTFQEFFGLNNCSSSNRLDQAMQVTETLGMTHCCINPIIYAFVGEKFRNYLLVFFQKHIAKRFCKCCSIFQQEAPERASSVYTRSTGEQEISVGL
Procedure: as §3, §4, §5, §6, §7, §8, §9, §10, §11, §12, §13, §14, §15, §16, §17, §18

[8] = system: human liver microsomal cytochrome P450 isoenzymes; assay: Inhibition of human liver microsomal cytochrome P450 isoenzymes, overall conclusion; format: in vitro ADME; details: conclusion from Table 2
Procedure: as §1, §2

Compound: CCCCOCCOc1ccc(-c2ccc3c(c2)/C=C(/C(=O)Nc2ccc([S@@+]([O-])Cc4cncn4CCC)cc2)CCCN3CC(C)C)cc1 [(CVC), Cenicriviroc, reference compound]
IC50 [1]: > 50000 nM | IC50 [2]: > 50000 nM | IC50 [3]: > 50000 nM | IC50 [4]: > 50000 nM | inhibitory effect on CYP3A4 (in words) [5]: strong inhibitory effect | IC50 [5]: 750 nM

Compound: CCCCOCCOc1ccc(-c2ccc3c(c2)/C=C(/C(=O)Nc2ccc([S@@+]([O-])Cc4cncn4CCC)cc2)CCCN3CC2CC2)cc1 [Reference A, reference compound]
IC50 [1]: > 50000 nM | IC50 [2]: > 50000 nM | IC50 [3]: > 50000 nM | IC50 [4]: > 50000 nM | inhibitory effect on CYP3A4 (in words) [5]: strong inhibitory effect | IC50 [5]: 786 nM

Compound: CCCCOCCOc1ccc(-c2ccc3c(c2)C=C(C(=O)Nc2ccc([S@+]([O-])Cc4c(C)ncn4CC)cc2)CCN3CC2CCCOC2)cc1 (some centres unmarked) [WX003]
IC50 [6]: 37 nM | IC50 [7]: 8.27 nM

Compound: CCCCOCCOc1ccc(-c2ccc3c(c2)/C=C(/C(=O)Nc2ccc([S@+]([O-])Cc4c(C)ncn4CC)cc2)CCCCN3CC2COC2)cc1 [WX005]
IC50 [6]: 9.2 nM | IC50 [7]: 4.2 nM

Compound: CCCCOCCOc1ccc(-c2ccc3c(c2)/C=C(/C(=O)Nc2ccc([S@+]([O-])Cc4c(C)ncn4CC)cc2)CCCCN3CC2CCCOC2)cc1 (some centres unmarked) [WX006]
IC50 [6]: 7.51 nM | IC50 [7]: 8.44 nM

Compound: CCCCOCCOc1ccc(-c2ccc3c(c2)/C=C(/C(=O)Nc2ccc([S@+]([O-])Cc4c(C)ncn4CC)cc2)CCCCN3CC2CCCOC2)cc1 (some centres unmarked) [WX007]
IC50 [6]: 6.76 nM | IC50 [7]: 6.18 nM

Compound: CCCCOCCOc1ccc(-c2ccc3c(c2)/C=C(/C(=O)Nc2ccc([S@+]([O-])Cc4c(C)ncn4CC)cc2)CCCN3CC2CCN(C)CC2)cc1 [WX009]
IC50 [6]: 4.38 nM | IC50 [7]: 6.78 nM

Compound: CCCCOCCOc1ccc(-c2ccc3c(c2)/C=C(/C(=O)Nc2ccc([S@+]([O-])Cc4c(C)ncn4CC)cc2)CCCN3CC2CCOC2)cc1 (some centres unmarked) [WX014]
IC50 [6]: 3.78 nM | IC50 [7]: 6.28 nM

Compound: CCCCOCCOc1ccc(-c2ccc3c(c2)C=C(C(=O)Nc2ccc([S@+]([O-])Cc4c(C)ncn4CC)cc2)CCN3CC2CCN(C)CC2)cc1 [WX018]
IC50 [6]: 17.9 nM | IC50 [7]: 3.35 nM

Continued, values first:

IC50 [6]: 1.33 nM | IC50 [7]: 4.25 nM | IC50 [1]: > 50000 nM | IC50 [2]: > 50000 nM | IC50 [3]: 1420 nM | IC50 [4]: > 50000 nM | inhibitory effect on CYP3A4 (in words) [5]: no inhibitory effect | IC50 [5]: > 50000 nM
Compound: CCCCOCCOc1ccc(-c2ccc3c(c2)/C=C(/C(=O)Nc2ccc([S@+]([O-])Cc4c(C)ncn4CC)cc2)CCCN3CC2CCOCC2)cc1 [WX001]

IC50 [6]: 3 nM | IC50 [1]: > 50000 nM | IC50 [2]: 10900 nM | IC50 [3]: > 50000 nM | IC50 [4]: > 50000 nM | IC50 [5]: 13300 nM | risk of inhibiting the activity of human liver microsomal cytochrome P450 isoenzymes (in words) [8]: no risk of inhibiting the activity
Compound: CCCCOCCOc1ccc(-c2ccc3c(c2)/C=C(/C(=O)Nc2ccc([S@@+]([O-])Cc4c(C)ncn4CC)cc2)CCCN3CC2CCOCC2)cc1 [WX002]

IC50 [6]: 3.04 nM | IC50 [7]: 6.3 nM
Compound: CCCCOCCOc1ccc(-c2ccc3c(c2)/C=C(/C(=O)Nc2ccc([S@+]([O-])Cc4c(C)ncn4CC)cc2)CCCN3CC2COC2)cc1 [WX004]

IC50 [6]: 3.4 nM | IC50 [7]: 6.04 nM
Compound: CCCCOCCOc1ccc(-c2ccc3c(c2)/C=C(/C(=O)Nc2ccc([S@+]([O-])Cc4c(C)ncn4CC)cc2)CCCN3CC2CCCCO2)cc1 (some centres unmarked) [WX008]

IC50 [6]: 3.11 nM | IC50 [7]: 5.45 nM
Compound: CCCCOCCOc1ccc(-c2ccc3c(c2)/C=C(/C(=O)Nc2ccc([S@+]([O-])Cc4c(C)ncn4CC)cc2)CCCN3CC2CCOC2)cc1 (some centres unmarked) [WX013]

IC50 [6]: 2.47 nM
Compound: CCCCOCCOc1ccc(-c2ccc3c(c2)/C=C(/C(=O)Nc2ccc([S@@+]([O-])Cc4c(C)ncn4CC)cc2)CCCN3CC2CCOCC2)cc1 [WX017]

IC50 [6]: 0.69 nM | IC50 [7]: 1.38 nM
Compound: CCCCOCCOc1ccc(-c2ccc3c(c2)/C=C(/C(=O)Nc2ccc([S@+]([O-])Cc4c(C)ncn4CC)cc2)CCCN3CC2COCCO2)cc1 (some centres unmarked) [WX025]

IC50 [6]: 0.69 nM | IC50 [7]: 1.37 nM
Compound: CCCCOCCOc1ccc(-c2ccc3c(c2)/C=C(/C(=O)Nc2ccc([S@+]([O-])Cc4c(C)ncn4CC)cc2)CCCN3CC2COCCO2)cc1 (some centres unmarked) [WX026]

IC50 [6]: 0.41 nM | IC50 [7]: 1.44 nM
Compound: CCCCOCCOc1ccc(-c2ccc3c(c2)/C=C(/C(=O)Nc2ccc([S@+]([O-])Cc4c(C)ncn4CC)cc2)CCCN3CC2CCCO2)cc1 (some centres unmarked) [WX027]

IC50 [6]: 1.19 nM | IC50 [7]: 3.15 nM
Compound: CCCCOCCOc1ccc(-c2ccc3c(c2)/C=C(/C(=O)Nc2ccc([S@+]([O-])Cc4c(C)ncn4CC)cc2)CCCN3C[C@H]2CCCO2)cc1 [WX028]

Source: patent publication US20230002360A1, “Heterocycloalkyl compounds as CCR2 / CCR5 antagonists” (SHENZHEN LINGFANG BIOTECH CO.,LTD, priority 2019, published 2023)
